# Source: patent US11578067B2, “Compound, and method for producing regulatory T cells” (Kyoto University, priority 2017, dated 2023)
# Key:
# naive Th cells = experiment: Induction from naive T cells to Tregs by CDK8/19 inhibitory drugs (CD25+ Foxp3+ cells, EC150); format: cell-based, mouse; conditions: concentration giving 150% CD25+ Foxp3+ cells versus 0.1% DMSO, 44 hours, geometric average of three trials
# Procedure: The naive T cells were generated by the following method. […] Naive Th cells were prepared from the cell suspension using Naive CD4^+ T cell Isolation Kit, mouse (manufactured by Miltenyi Biotec). […] Further, Anti-Biotin MicroBeads and CD44 MicroBeads were added, followed by incubation at 4° C. for 10 minutes and then a centrifugation operation (300xg, 10 minutes). After the removal of the supernatant, the cells were resuspended in MEM and applied to an LS column (manufactured by Miltenyi Biotech). The cells contained in the flow-through liquid were used in the subsequent experiments. The prepared naive Th cells (2×10^5 cells) were stimulated with an anti-CD3/CD28 antibody (Gibco Dynabeads Mouse T-Activator CD3/CD28; manufactured by Thermo Fisher Scientific) in the presence of various CDK8/19 inhibitory drugs (usage amount: from 1 nM to 10,000 nM [[μM]]) at 5% CO2 at 37° C. […] The stained cells were measured using Canto II (manufactured by BD) by a flow cytometry method, and a proportion of CD25^+ Foxp3^+ cells in CD4^+ viable cells was analyzed using FlowJo (manufactured by FlowJo).
# [1] = system: mouse actively-sensitized antibody-induced nasal allergy model; experiment: Actively-sensitized antibody-induced nasal allergy model, nasal rubbing; format: in vivo
# Procedure: The mouse actively-sensitized antibody-induced nasal allergy model was generated by the following method. Seven-week-old BALB/c mice (manufactured by SLC, male) were initially sensitized by intraperitoneal administration of 200 μL of a mixed liquid of OVA (manufactured by Wako Pure Chemical Industries, Ltd.) (0.5 mg/mL) (100 μg/mouse), 5 mg/mL of aluminum hydroxide (ALUM; manufactured by Wako Pure Chemical Industries, Ltd.), and 1.5 μg/mL of pertussis toxin (manufactured by Wako Pure Chemical Industries, Ltd.). Next, 5 days after the initial sensitization, as additional sensitization, OVA (50 μg/mouse) was administered into the dorsal skin of the mice to perform systemic sensitization. After that, OVA (100 μg/mouse) was administered to the mice as nasal drops at a frequency of once a day as local sensitization for 8 days from day 18 after the initial sensitization to elicit a nasal allergy symptom due to active sensitization.
# A 0.5% (w/v) methylcellulose solution serving as a vehicle was used for a vehicle control group, and dexamethasone (manufactured by Tokyo Chemical Industry Co., Ltd.) was used for a positive control.
# OVA-induced asthma model = experiment: OVA-induced asthma model, airway resistance after methacholine; format: in vivo, mouse; conditions: 0.5 mg/kg oral once a day, 34 days, 25 mg/mL methacholine
# Th1-type asthma model = experiment: Th1-type asthma model, airway resistance after methacholine; format: in vivo, mouse; conditions: 0.5 mg/kg oral once a day, 17 days, 25 mg/mL methacholine
# CDK8 = CDK8 (Homo sapiens, UniProt P49336); experiment: CDK8 kinase activity measurement (QSS Assist CDK8/CycC_ELISA kit)
# CDK8, sequence (P49336 whole entry): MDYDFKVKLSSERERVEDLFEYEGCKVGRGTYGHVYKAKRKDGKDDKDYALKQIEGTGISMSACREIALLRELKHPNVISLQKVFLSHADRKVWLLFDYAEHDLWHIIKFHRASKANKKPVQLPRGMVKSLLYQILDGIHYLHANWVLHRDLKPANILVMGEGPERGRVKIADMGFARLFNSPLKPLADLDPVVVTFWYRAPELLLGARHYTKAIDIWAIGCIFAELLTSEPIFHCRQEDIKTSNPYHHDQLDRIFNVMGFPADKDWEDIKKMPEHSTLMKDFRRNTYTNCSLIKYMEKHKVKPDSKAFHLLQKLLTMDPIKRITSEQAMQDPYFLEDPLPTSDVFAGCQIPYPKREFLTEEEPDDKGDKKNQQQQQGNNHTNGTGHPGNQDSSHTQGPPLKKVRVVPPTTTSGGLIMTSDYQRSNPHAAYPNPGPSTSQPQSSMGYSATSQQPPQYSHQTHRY
# CDK8, sequence (P24863 whole entry partner): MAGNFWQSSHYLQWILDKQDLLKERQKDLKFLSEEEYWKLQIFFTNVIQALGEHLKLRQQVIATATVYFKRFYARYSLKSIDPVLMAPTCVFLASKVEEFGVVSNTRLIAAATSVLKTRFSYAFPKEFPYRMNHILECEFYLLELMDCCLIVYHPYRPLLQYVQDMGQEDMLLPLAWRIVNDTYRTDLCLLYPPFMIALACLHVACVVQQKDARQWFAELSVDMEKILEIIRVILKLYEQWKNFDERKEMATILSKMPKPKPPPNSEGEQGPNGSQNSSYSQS
# CDK19 = CDK19 (Homo sapiens, UniProt Q9BWU1); experiment: CDK19 kinase activity measurement (QSS Assist CDC2L6/CycC_ELISA kit)
# CDK19, sequence (Q9BWU1 whole entry): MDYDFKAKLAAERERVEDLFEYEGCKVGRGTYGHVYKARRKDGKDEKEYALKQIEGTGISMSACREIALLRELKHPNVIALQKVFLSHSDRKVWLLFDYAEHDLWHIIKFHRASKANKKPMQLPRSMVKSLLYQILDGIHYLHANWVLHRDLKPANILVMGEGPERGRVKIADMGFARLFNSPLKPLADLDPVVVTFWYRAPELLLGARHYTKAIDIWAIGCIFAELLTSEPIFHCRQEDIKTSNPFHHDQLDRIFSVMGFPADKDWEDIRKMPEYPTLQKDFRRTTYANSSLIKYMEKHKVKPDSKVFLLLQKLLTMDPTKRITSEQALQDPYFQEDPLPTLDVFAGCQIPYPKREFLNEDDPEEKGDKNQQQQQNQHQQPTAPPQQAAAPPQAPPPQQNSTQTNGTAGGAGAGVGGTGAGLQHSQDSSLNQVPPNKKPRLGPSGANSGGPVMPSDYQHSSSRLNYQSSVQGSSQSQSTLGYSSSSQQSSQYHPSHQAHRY
# CDK19, sequence (P24863 whole entry partner): as the sequence (P24863 whole entry partner) above
# [2] = system: CD4+ CD25− Foxp3− CD62L+ CD44− naive T cells; experiment: In vitro Foxp3 induction in naive T cells (Foxp3-GFP, flow cytometry); format: cell-based, mouse; conditions: hTGF-β1 2 ng/mL alone, anti-CD3/CD28, 72 hours
# Procedure: The eFox mice were generated in accordance with a method described in Science. […] The prepared total lymphocytic cells were stained with an anti-CD4 antibody (RM-4.5; manufactured by BD), an anti-CD62L antibody (MEL-14; manufactured by BD), and an anti-CD44 antibody (IM7; manufactured by BD), and CD4^+ CD25^− Foxp3^− CD62L^+ CD44^− naive T cells were prepared using FACSAria™ II (manufactured by BD).
# The cells after the treatment were stained with an anti-CD4 antibody (manufactured by BD), and a proportion of Foxp3-GFP-positive cells was analyzed by a flow cytometry method.
# [3] = system: human naive CD4+ T cells (CD4+ CD25− CD45RA+ Foxp3−); experiment: Foxp3 induction in human naive CD4+ T cells with anti-TGF-β antibody or TGF-β; format: cell-based; conditions: hTGF-β1 2 ng/mL alone, hIL-2, 72 hours
# Procedure: Human naive CD4^+ T cells (CD4^+ CD25^− CD45RA^+ Foxp3^−) were prepared from human peripheral blood mononuclear cells (manufactured by Wako Pure Chemical Industries, Ltd.) in the same manner as in Example 17. As shown in the following items (i) to (iv), the prepared naive T cells (2×10^5 cells) were stimulated using 5 μL of an anti-CD3/CD28 antibody (Gibco Dynabeads Human T-Activator CD3/CD28; manufactured by Thermo Fisher Scientific) in the presence/absence of 2 ng/mL of hTGF-β1 (manufactured by R&D) or 10 μg/mL of an anti-TGF-β antibody (manufactured by R&D), hIL-2 (manufactured by Shionogi & Co., Ltd.) (50 U/ml), and 100 nM of Compound 1 Salt, and treated under a 5% CO2 atmosphere at 37° C. for 72 hours.
# (§1) The cells after the treatment were stained with an anti-CD4 antibody (manufactured by BD) and an anti-Foxp3 antibody (manufactured by eBioscience), and a proportion of Foxp3-positive cells was analyzed by a flow cytometry method.
# [4] = system: human effector memory CD4+ T cells (CD4+ CD25− CD45RA− Foxp3−); experiment: Foxp3 induction in human effector memory CD4+ T cells; format: cell-based; conditions: TGF-β 2 ng/mL alone, hIL-2, 72 hours
# Procedure: Human peripheral blood mononuclear cells (manufactured by Wako Pure Chemical Industries, Ltd.) were stained using an anti-CD4 antibody (RPA-T4; manufactured by BD), an anti-CD25 antibody (M-A251; manufactured by BD), and an anti-CD45RA antibody (HI100; manufactured by BD), and human effector memory CD4^+ T cells (CD4^+ CD25^− CD45RA^− Foxp3^−) were prepared using FACSAria™ II (manufactured by BD).
# as §1
compound,measurement,setting,value
N#Cc1ccc2ncnc(NCCc3ccccc3)c2c1 [Senexin A],EC150,naive Th cells,192.2 nM
"COc1ccc(N2CCC(n3c(-c4nccnc4N)nc4c(C)nccc43)CC2)cc1 [Compound 2, 3-{1-[1-(4-methoxyphenyl)piperidin-4-yl]-4-methyl-1H-imidazo[4,5-c]pyridin-2-yl}pyrazin-2-amine]",number of times of nasal rubbing,[1]; 1.0 mg/kg oral daily,significantly suppressed
same,number of times of nasal rubbing,[1]; 3.0 mg/kg oral daily,significantly suppressed
same,airway reactivity (sRaw),OVA-induced asthma model,suppressed an increase in airway reactivity
same,airway reactivity (sRaw),Th1-type asthma model,suppressed an increase in airway reactivity
same,EC150,naive Th cells,10.2 nM
same,IC50,CDK8,0.7 nM
same,IC50,CDK19,1.9 nM
NC(=O)[C@H](Nc1cncc(-c2ccc(O)c(Cl)c2)c1)c1ccccc1 [(R)-2-[5-(3-Chloro-4-hydroxyphenyl)-pyridin-3-ylamino]-2-phenylacetamide],EC150,naive Th cells,2.8 nM
"TGF-β: hTGF-β1 (manufactured by R&D), used as control and in combination",proportion of Foxp3-GFP-positive cells,[2],44.3%
same,proportion of Foxp3-positive cells,[3],26.9%
same,proportion of Foxp3-positive cells,[4],28.5%
